From patent US20230265151A1, “GIP/GLP1 CO-AGONIST COMPOUNDS” (priority 2020, published 2023)
Where two headings read alike, the source gives them in different places. *1 amine or outer side, *2 acyl side, *3 side chain or, on linkers, in order; H or OH if unused. Where a SMILES comes first, the peptide text is derived from it. Side-chain parts run from the residue outwards. [ ]: non-standard residue; d: D form. The star is where a group is joined. αMePhe(2-F) = C[C@](N)(Cc1ccccc1F)C(=O)O; γGlu = O=C(O)[C@H](CCC(=O)[*:2])N[*:1]; C14 diacid = O=C(O)CCCCCCCCCCCCC(=O)*; αMeY = C[C@](N)(Cc1ccc(O)cc1)C(=O)O; 4Pal = N[C@@H](Cc1ccncc1)C(=O)O; αMeL = CC(C)C[C@](C)(N)C(=O)O; Orn = NCCC[C@H](N)C(=O)O; AEEA = NCCOCCOCC(=O)O; Aib = CC(C)(N)C(=O)O

Assays:
Type in all cases: cell-based
[1] = target: T1, hGIPR (Homo sapiens, UniProt P48546); experiment: Functional cAMP formation (HTRF) in HEK-293 clonal cells expressing hGIPR, 0.1% bovine casein, without or with 1.0% human serum albumin; details: for EC50: geometric mean
T1 construct: expressed in transfected cells
T1 sequence (P48546 22-466): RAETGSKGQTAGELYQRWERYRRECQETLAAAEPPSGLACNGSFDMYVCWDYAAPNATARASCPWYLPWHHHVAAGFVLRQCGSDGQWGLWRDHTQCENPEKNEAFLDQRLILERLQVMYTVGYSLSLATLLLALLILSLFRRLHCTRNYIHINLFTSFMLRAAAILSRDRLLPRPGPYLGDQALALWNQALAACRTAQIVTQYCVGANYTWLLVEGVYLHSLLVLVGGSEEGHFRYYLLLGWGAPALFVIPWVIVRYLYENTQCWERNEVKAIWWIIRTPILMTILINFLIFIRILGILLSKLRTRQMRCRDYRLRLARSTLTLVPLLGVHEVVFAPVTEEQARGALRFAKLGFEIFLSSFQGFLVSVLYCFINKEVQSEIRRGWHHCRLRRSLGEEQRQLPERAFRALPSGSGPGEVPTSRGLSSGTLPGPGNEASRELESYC
How it was run: (§1)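 Readings of the HTRF 665/620 nm ratio, which falls as cAMP rises, were converted to nM cAMP using a standard curve after 30 min peptide exposure at 37° C.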

[2] = target: T2, hGCGR (Homo sapiens, UniProt P47871); experiment: Functional cAMP formation (HTRF) in HEK-293 clonal cells expressing hGCGR, 0.1% bovine casein, without or with 1.0% human serum albumin; details: geometric mean
T2 construct: expressed in transfected cells
T2 sequence (P47871 26-477): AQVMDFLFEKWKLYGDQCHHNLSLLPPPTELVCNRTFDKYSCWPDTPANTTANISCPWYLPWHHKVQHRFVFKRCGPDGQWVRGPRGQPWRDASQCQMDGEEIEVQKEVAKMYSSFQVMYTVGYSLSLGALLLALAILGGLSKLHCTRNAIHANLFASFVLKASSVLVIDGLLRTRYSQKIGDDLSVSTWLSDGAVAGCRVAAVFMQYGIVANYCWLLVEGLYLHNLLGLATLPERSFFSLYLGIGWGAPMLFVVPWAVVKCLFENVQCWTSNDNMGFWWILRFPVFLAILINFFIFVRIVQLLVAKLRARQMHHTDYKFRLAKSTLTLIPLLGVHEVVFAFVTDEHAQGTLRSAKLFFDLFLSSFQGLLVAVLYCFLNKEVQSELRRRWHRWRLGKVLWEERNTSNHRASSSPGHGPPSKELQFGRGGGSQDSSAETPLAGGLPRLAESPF
How it was run: as §1

[3] = target: hGLP-1R (Homo sapiens, UniProt P43220); experiment: Functional cAMP formation (HTRF) in HEK-293 clonal cells expressing hGLP-1R, 0.1% bovine casein, without or with 1.0% human serum albumin; parameters: expressed in transfected cells; details: for EC50: geometric mean
Sequence of hGLP-1R (P43220 24-463): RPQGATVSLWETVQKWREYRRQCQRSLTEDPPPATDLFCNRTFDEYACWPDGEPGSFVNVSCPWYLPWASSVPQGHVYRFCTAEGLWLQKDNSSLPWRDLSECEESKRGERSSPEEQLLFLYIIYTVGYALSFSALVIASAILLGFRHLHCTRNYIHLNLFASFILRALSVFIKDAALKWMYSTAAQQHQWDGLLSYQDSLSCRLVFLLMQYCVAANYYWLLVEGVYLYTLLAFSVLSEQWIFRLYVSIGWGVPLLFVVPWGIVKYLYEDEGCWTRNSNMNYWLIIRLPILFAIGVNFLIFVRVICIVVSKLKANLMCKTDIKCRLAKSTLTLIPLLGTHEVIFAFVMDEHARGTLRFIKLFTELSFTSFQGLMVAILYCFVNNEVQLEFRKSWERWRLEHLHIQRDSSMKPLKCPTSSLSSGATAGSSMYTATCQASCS
How it was run: as §1

[4] = HEK293, 0.1% bovine casein and 1.0% human serum albumin, 37° C., percent of maximal response to GIP(1-42)NH2, read-out: hGIPR Emax, % ± SEM
[5] = HEK293, percent of maximal response to GIP(1-42)NH2, 37° C., 0.1% bovine casein, arithmetic mean, read-out: hGIPR Emax, % ± SEM
[6] = cAMP, incubated at 37° C., 0.1% bovine casein (no human serum albumin), read-out: hGIPR EC50, nM (SEM, n)
[7] = 0.1% bovine casein and 1.0% human serum albumin, 37° C., read-out: hGCGR EC50, nM (SEM, n)
[8] = cAMP, incubated at 37° C., 0.1% bovine casein (no human serum albumin), read-out: hGCGR EC50, nM (SEM, n)
[9] = 0.1% bovine casein and 1.0% human serum albumin, 37° C., read-out: hGLP-1R EC50, nM (SEM, n)
[10] = HEK293, 0.1% bovine casein and 1.0% human serum albumin, 37° C., percent of maximal response to GLP-1(7-36)NH2, read-out: hGLP-1R Emax, % ± SEM
[11] = HEK293, percent of maximal response to GLP-1(7-36)NH2, 37° C., 0.1% bovine casein, arithmetic mean, read-out: hGLP-1R Emax, % ± SEM
[12] = cAMP, incubated at 37° C., 0.1% bovine casein (no human serum albumin), read-out: hGLP-1R EC50, nM (SEM, n)
[13] = 0.1% bovine casein and 1.0% human serum albumin, 37° C., read-out: hGIPR EC50, nM (SEM, n)

| Compound | Emax [1, 4] [%] | Emax [1, 5] [%] | EC50 [1, 6] [nM] | EC50 [2, 7] [nM] | EC50 [2, 8] [nM] | EC50 [3, 9] [nM] | Emax [3, 10] [%] | Emax [3, 11] [%] | EC50 [3, 12] [nM] | EC50 [1, 13] [nM] | Emax ([1]; HEK293, read-out: hGIPR Emax, % ± SEM, 0.1% bovine casein and 1.0% human serum albumin, 37° C., percent of maximal response to GIP(1-42)NH2) [%] | Emax ([1]; HEK293, read-out: hGIPR Emax, % ± SEM, percent of maximal response to GIP(1-42)NH2, 37° C., 0.1% bovine casein, arithmetic mean) [%] | EC50 ([1]; hGIPR EC50, nM (SEM, n), 0.1% bovine casein and 1.0% human serum albumin, 37° C.) [nM] | EC50 ([1]; hGIPR EC50, nM (SEM, n), cAMP, incubated at 37° C., 0.1% bovine casein (no human serum albumin)) [nM] | EC50 ([2]; hGCGR EC50, nM (SEM, n), 0.1% bovine casein and 1.0% human serum albumin, 37° C.) [nM] | EC50 ([2]; hGCGR EC50, nM (SEM, n), cAMP, incubated at 37° C., 0.1% bovine casein (no human serum albumin)) [nM] | Emax ([3]; HEK293, read-out: hGLP-1R Emax, % ± SEM, 0.1% bovine casein and 1.0% human serum albumin, 37° C., percent of maximal response to GLP-1(7-36)NH2) [%] | Emax ([3]; HEK293, read-out: hGLP-1R Emax, % ± SEM, percent of maximal response to GLP-1(7-36)NH2, 37° C., 0.1% bovine casein, arithmetic mean) [%] | EC50 ([3]; hGLP-1R EC50, nM (SEM, n), 0.1% bovine casein and 1.0% human serum albumin, 37° C.) [nM] | EC50 ([3]; hGLP-1R EC50, nM (SEM, n), cAMP, incubated at 37° C., 0.1% bovine casein (no human serum albumin)) [nM] |
| --- | --- | --- | --- | --- | --- | --- | --- | --- | --- | --- | --- | --- | --- | --- | --- | --- | --- | --- | --- | --- |
| CC[C@H](C)[C@H](NC(=O)[C@H](CCCN)NC(=O)[C@H](CC(=O)O)NC(=O)[C@H](CC(C)C)NC(=O)[C@](C)(CC(C)C)NC(=O)[C@@H](NC(=O)[C@](C)(CO)NC(=O)[C@H](Cc1ccncc1)NC(=O)[C@H](CC(=O)O)NC(=O)[C@H](CO)NC(=O)[C@@H](NC(=O)[C@](C)(Cc1ccccc1F)NC(=O)[C@@H](NC(=O)CNC(=O)[C@H](CCC(=O)O)NC(=O)C(C)(C)NC(=O)[C@@H](N)Cc1ccc(O)cc1)[C@@H](C)O)[C@@H](C)O)[C@@H](C)CC)C(=O)N[C@@H](C)C(=O)N[C@@H](CCC(N)=O)C(=O)NC(C)(C)C(=O)N[C@@H](CCC(=O)O)C(=O)N[C@@H](Cc1ccccc1)C(=O)N[C@H](C(=O)N[C@@H](CCCCNC(=O)COCCOCCNC(=O)COCCOCCNC(=O)CC[C@H](NC(=O)CCCCCCCCCCCCC(=O)O)C(=O)O)C(=O)N[C@@](C)(Cc1ccc(O)cc1)C(=O)N[C@@H](CC(C)C)C(=O)N[C@H](C(=O)N[C@@H](CCCCNC(=O)COCCOCCNC(=O)COCCOCCNC(=O)CC[C@H](NC(=O)CCCCCCCCCCCCC(=O)O)C(=O)O)C(=O)NCC(=O)NCC(=O)N1CCC[C@H]1C(=O)N[C@@H](CO)C(=O)N[C@@H](CO)C(=O)NCC(=O)N[C@@H](C)C(=O)N1CCC[C@H]1C(=O)N1CCC[C@H]1C(=O)N1CCC[C@H]1C(=O)N[C@@H](CO)C(N)=O)[C@@H](C)CC)[C@@H](C)CC [Example 216] | 63.4 | 88.5 | 0.0287 | > 9950 | > 9950 | 32.3 | 117 | 93.6 | 0.384 | – | – | – | – | – | – | – | – | – | – | – |
| CC[C@H](C)[C@H](NC(=O)[C@H](CCCN)NC(=O)[C@H](CC(=O)O)NC(=O)[C@H](CC(C)C)NC(=O)[C@](C)(CC(C)C)NC(=O)[C@@H](NC(=O)[C@](C)(CO)NC(=O)[C@H](Cc1ccncc1)NC(=O)[C@H](CC(=O)O)NC(=O)[C@H](CO)NC(=O)[C@@H](NC(=O)[C@](C)(Cc1ccccc1F)NC(=O)[C@@H](NC(=O)CNC(=O)[C@H](CCC(=O)O)NC(=O)C(C)(C)NC(=O)[C@@H](N)Cc1ccc(O)cc1)[C@@H](C)O)[C@@H](C)O)[C@@H](C)CC)C(=O)N[C@@H](C)C(=O)N[C@@H](CCC(N)=O)C(=O)NC(C)(C)C(=O)N[C@@H](CCCCNC(=O)COCCOCCNC(=O)COCCOCCNC(=O)CC[C@H](NC(=O)CCCCCCCCCCCCC(=O)O)C(=O)O)C(=O)N[C@@H](Cc1ccccc1)C(=O)N[C@H](C(=O)N[C@H](CCC(=O)O)C(=O)N[C@@](C)(Cc1ccc(O)cc1)C(=O)N[C@@H](CC(C)C)C(=O)N[C@H](C(=O)N[C@@H](CCCCNC(=O)COCCOCCNC(=O)COCCOCCNC(=O)CC[C@H](NC(=O)CCCCCCCCCCCCC(=O)O)C(=O)O)C(=O)NCC(=O)NCC(=O)N1CCC[C@H]1C(=O)N[C@@H](CO)C(=O)N[C@@H](CO)C(=O)NCC(=O)N[C@@H](C)C(=O)N1CCC[C@H]1C(=O)N1CCC[C@H]1C(=O)N1CCC[C@H]1C(=O)N[C@@H](CO)C(N)=O)[C@@H](C)CC)[C@@H](C)CC [Example 217] | 62.7 | 95.5 | 0.0309 | > 9950 | > 9950 | – | 118 | 88 | 0.436 | 7.84 | – | – | – | – | – | – | – | – | – | – |
| CC[C@H](C)[C@H](NC(=O)[C@H](CCCN)NC(=O)[C@H](CC(=O)O)NC(=O)[C@H](CC(C)C)NC(=O)[C@](C)(CC(C)C)NC(=O)[C@@H](NC(=O)C(C)(C)NC(=O)[C@H](Cc1ccncc1)NC(=O)[C@H](CC(=O)O)NC(=O)[C@H](CO)NC(=O)[C@@H](NC(=O)[C@](C)(Cc1ccccc1F)NC(=O)[C@@H](NC(=O)CNC(=O)[C@H](CCC(=O)O)NC(=O)C(C)(C)NC(=O)[C@@H](N)Cc1ccc(O)cc1)[C@@H](C)O)[C@@H](C)O)[C@@H](C)CC)C(=O)N[C@@H](C)C(=O)N[C@@H](CCC(N)=O)C(=O)NC(C)(C)C(=O)N[C@@H](CCCCNC(=O)COCCOCCNC(=O)COCCOCCNC(=O)CC[C@H](NC(=O)CCCCCCCCCCCCC(=O)O)C(=O)O)C(=O)N[C@@H](Cc1ccccc1)C(=O)N[C@H](C(=O)N[C@@H](CCCCNC(=O)COCCOCCNC(=O)COCCOCCNC(=O)CC[C@H](NC(=O)CCCCCCCCCCCCC(=O)O)C(=O)O)C(=O)N[C@@](C)(Cc1ccc(O)cc1)C(=O)N[C@@H](CC(C)C)C(=O)N[C@H](C(=O)N[C@@H](CCC(=O)O)C(=O)NCC(=O)NCC(=O)N1CCC[C@H]1C(=O)N[C@@H](CO)C(=O)N[C@@H](CO)C(=O)NCC(=O)N[C@@H](C)C(=O)N1CCC[C@H]1C(=O)N1CCC[C@H]1C(=O)N1CCC[C@H]1C(=O)N[C@@H](CO)C(N)=O)[C@@H](C)CC)[C@@H](C)CC [Example 218] (H-Y[Aib]EGT[αMePhe(2-F)]TSD[4Pal][Aib]I[αMeL]LD[Orn]IAQ[Aib]K([AEEA-AEEA-γGlu-C14 diacid])FIK([AEEA-AEEA-γGlu-C14 diacid])[αMeY]LIEGGPSSGAPPPS-NH2; N-terminus assumed) | – | – | – | – | – | – | – | – | – | – | 95.9 | 90.2 | 3.27 | 0.0515 | > 9950 | > 9950 | 121 | 92.6 | 36.6 | 0.714 |
| CC[C@H](C)[C@H](NC(=O)[C@H](CCCN)NC(=O)[C@H](CC(=O)O)NC(=O)[C@H](CC(C)C)NC(=O)[C@](C)(CC(C)C)NC(=O)[C@@H](NC(=O)C(C)(C)NC(=O)[C@H](Cc1ccncc1)NC(=O)[C@H](CC(=O)O)NC(=O)[C@H](CO)NC(=O)[C@@H](NC(=O)[C@](C)(Cc1ccccc1F)NC(=O)[C@@H](NC(=O)CNC(=O)[C@H](CCC(=O)O)NC(=O)C(C)(C)NC(=O)[C@@H](N)Cc1ccc(O)cc1)[C@@H](C)O)[C@@H](C)O)[C@@H](C)CC)C(=O)N[C@@H](C)C(=O)N[C@@H](CCC(N)=O)C(=O)NC(C)(C)C(=O)N[C@@H](CCCCNC(=O)COCCOCCNC(=O)COCCOCCNC(=O)CC[C@H](NC(=O)CCCCCCCCCCCCC(=O)O)C(=O)O)C(=O)N[C@@H](Cc1ccccc1)C(=O)N[C@H](C(=O)N[C@H](CCC(=O)O)C(=O)N[C@@](C)(Cc1ccc(O)cc1)C(=O)N[C@@H](CC(C)C)C(=O)N[C@H](C(=O)N[C@@H](CCCCNC(=O)COCCOCCNC(=O)COCCOCCNC(=O)CC[C@H](NC(=O)CCCCCCCCCCCCC(=O)O)C(=O)O)C(=O)NCC(=O)NCC(=O)N1CCC[C@H]1C(=O)N[C@@H](CO)C(=O)N[C@@H](CO)C(=O)NCC(=O)N[C@@H](C)C(=O)N1CCC[C@H]1C(=O)N1CCC[C@H]1C(=O)N1CCC[C@H]1C(=O)N[C@@H](CO)C(N)=O)[C@@H](C)CC)[C@@H](C)CC [Example 220] | 83.5 | 91.6 | 0.0237 | > 9950 | > 9950 | 150 | 110 | 87.6 | 0.535 | 11.6 | – | – | – | – | – | – | – | – | – | – |
